Literature values in paper PMC11728000, “Antitumor Activity and Multi-Target Mechanism of Phenolic Schiff Bases Bearing Methanesulfonamide Fragments: Cell Cycle Analysis and a Molecular Modeling Study” (International Journal of Molecular Sciences, 2024).

What was measured:
NCI-H23 = tested on: NCI-H23; set-up: method as in https://dtp.cancer.gov/dtpstandard/dwindex/index.jsp; conditions: ref https://dtp.cancer.gov/dtpstandard/dwindex/index.jsp; cited from earlier work
CAKI-1 = tested on: CAKI-1; set-up: method as in https://dtp.cancer.gov/dtpstandard/dwindex/index.jsp; conditions: ref https://dtp.cancer.gov/dtpstandard/dwindex/index.jsp; cited from earlier work
A498 = tested on: A498; set-up: method as in https://dtp.cancer.gov/dtpstandard/dwindex/index.jsp; conditions: ref https://dtp.cancer.gov/dtpstandard/dwindex/index.jsp; cited from earlier work
[1] = tested on: 59 human cancer cell lines; conditions: full panel mean-graph midpoint, ref https://dtp.cancer.gov/dtpstandard/dwindex/index.jsp, cited from earlier work
MDA-MB-435 = tested on: MDA-MB-435; set-up: method as in https://dtp.cancer.gov/dtpstandard/dwindex/index.jsp; conditions: ref https://dtp.cancer.gov/dtpstandard/dwindex/index.jsp; cited from earlier work
[2] = tested on: Colon Cancer subpanel tumor cell lines; conditions: cited from earlier work
OVCAR-5 = tested on: OVCAR-5; set-up: method as in https://dtp.cancer.gov/dtpstandard/dwindex/index.jsp; conditions: ref https://dtp.cancer.gov/dtpstandard/dwindex/index.jsp; cited from earlier work
MCF-7 = tested on: MCF-7; set-up: method as in https://dtp.cancer.gov/dtpstandard/dwindex/index.jsp; conditions: ref https://dtp.cancer.gov/dtpstandard/dwindex/index.jsp; cited from earlier work
786-0 = tested on: 786-0; set-up: method as in https://dtp.cancer.gov/dtpstandard/dwindex/index.jsp; conditions: ref https://dtp.cancer.gov/dtpstandard/dwindex/index.jsp; cited from earlier work
[3] = tested on: Breast Cancer subpanel tumor cell lines; conditions: cited from earlier work
NCI/ADR-RES = tested on: NCI/ADR-RES; set-up: method as in https://dtp.cancer.gov/dtpstandard/dwindex/index.jsp; conditions: ref https://dtp.cancer.gov/dtpstandard/dwindex/index.jsp; cited from earlier work
TK-10 = tested on: TK-10; set-up: method as in https://dtp.cancer.gov/dtpstandard/dwindex/index.jsp; conditions: ref https://dtp.cancer.gov/dtpstandard/dwindex/index.jsp; cited from earlier work
[4] = tested on: CNS Cancer subpanel tumor cell lines; conditions: cited from earlier work
SF-268 = tested on: SF-268; set-up: method as in https://dtp.cancer.gov/dtpstandard/dwindex/index.jsp; conditions: ref https://dtp.cancer.gov/dtpstandard/dwindex/index.jsp; cited from earlier work
UACC-257 = tested on: UACC-257; set-up: method as in https://dtp.cancer.gov/dtpstandard/dwindex/index.jsp; conditions: ref https://dtp.cancer.gov/dtpstandard/dwindex/index.jsp; cited from earlier work
ACHN = tested on: ACHN; set-up: method as in https://dtp.cancer.gov/dtpstandard/dwindex/index.jsp; conditions: ref https://dtp.cancer.gov/dtpstandard/dwindex/index.jsp; cited from earlier work
HCC-2998 = tested on: HCC-2998; set-up: method as in https://dtp.cancer.gov/dtpstandard/dwindex/index.jsp; conditions: ref https://dtp.cancer.gov/dtpstandard/dwindex/index.jsp; cited from earlier work
IGROV1 = tested on: IGROV1; set-up: method as in https://dtp.cancer.gov/dtpstandard/dwindex/index.jsp; conditions: ref https://dtp.cancer.gov/dtpstandard/dwindex/index.jsp; cited from earlier work
SK-MEL-28 = tested on: SK-MEL-28; set-up: method as in https://dtp.cancer.gov/dtpstandard/dwindex/index.jsp; conditions: ref https://dtp.cancer.gov/dtpstandard/dwindex/index.jsp; cited from earlier work
DU-145 = tested on: DU-145; set-up: method as in https://dtp.cancer.gov/dtpstandard/dwindex/index.jsp; conditions: ref https://dtp.cancer.gov/dtpstandard/dwindex/index.jsp; cited from earlier work
U251 = tested on: U251; set-up: method as in https://dtp.cancer.gov/dtpstandard/dwindex/index.jsp; conditions: ref https://dtp.cancer.gov/dtpstandard/dwindex/index.jsp; cited from earlier work
NCI-H460 = tested on: NCI-H460; set-up: method as in https://dtp.cancer.gov/dtpstandard/dwindex/index.jsp; conditions: ref https://dtp.cancer.gov/dtpstandard/dwindex/index.jsp; cited from earlier work
MALME-3M = tested on: MALME-3M; set-up: method as in https://dtp.cancer.gov/dtpstandard/dwindex/index.jsp; conditions: ref https://dtp.cancer.gov/dtpstandard/dwindex/index.jsp; cited from earlier work
SNB-75 = tested on: SNB-75; set-up: method as in https://dtp.cancer.gov/dtpstandard/dwindex/index.jsp; conditions: ref https://dtp.cancer.gov/dtpstandard/dwindex/index.jsp; cited from earlier work
[5] = tested on: Ovarian Cancer subpanel tumor cell lines; conditions: cited from earlier work
A549/ATCC = tested on: A549/ATCC; set-up: method as in https://dtp.cancer.gov/dtpstandard/dwindex/index.jsp; conditions: ref https://dtp.cancer.gov/dtpstandard/dwindex/index.jsp; cited from earlier work
CCRF-CEM = tested on: CCRF-CEM; set-up: method as in https://dtp.cancer.gov/dtpstandard/dwindex/index.jsp; conditions: ref https://dtp.cancer.gov/dtpstandard/dwindex/index.jsp; cited from earlier work
MDA-MB-231/ATCC = tested on: MDA-MB-231/ATCC; set-up: method as in https://dtp.cancer.gov/dtpstandard/dwindex/index.jsp; conditions: ref https://dtp.cancer.gov/dtpstandard/dwindex/index.jsp; cited from earlier work
HT29 = tested on: HT29; set-up: method as in https://dtp.cancer.gov/dtpstandard/dwindex/index.jsp; conditions: ref https://dtp.cancer.gov/dtpstandard/dwindex/index.jsp; cited from earlier work
OVCAR-8 = tested on: OVCAR-8; set-up: method as in https://dtp.cancer.gov/dtpstandard/dwindex/index.jsp; conditions: ref https://dtp.cancer.gov/dtpstandard/dwindex/index.jsp; cited from earlier work
SN12C = tested on: SN12C; set-up: method as in https://dtp.cancer.gov/dtpstandard/dwindex/index.jsp; conditions: ref https://dtp.cancer.gov/dtpstandard/dwindex/index.jsp; cited from earlier work
KM12 = tested on: KM12; set-up: method as in https://dtp.cancer.gov/dtpstandard/dwindex/index.jsp; conditions: ref https://dtp.cancer.gov/dtpstandard/dwindex/index.jsp; cited from earlier work
UO-31 = tested on: UO-31; set-up: method as in https://dtp.cancer.gov/dtpstandard/dwindex/index.jsp; conditions: ref https://dtp.cancer.gov/dtpstandard/dwindex/index.jsp; cited from earlier work
EKVX = tested on: EKVX; set-up: method as in https://dtp.cancer.gov/dtpstandard/dwindex/index.jsp; conditions: ref https://dtp.cancer.gov/dtpstandard/dwindex/index.jsp; cited from earlier work
[6] = tested on: Leukemia subpanel tumor cell lines; conditions: cited from earlier work
LOX IMVI = tested on: LOX IMVI; set-up: method as in https://dtp.cancer.gov/dtpstandard/dwindex/index.jsp; conditions: ref https://dtp.cancer.gov/dtpstandard/dwindex/index.jsp; cited from earlier work
[7] = read-out: GI50, subpanel average, ref https://dtp.cancer.gov/dtpstandard/dwindex/index.jsp
[8] = read-out: LC50, subpanel average, ref https://dtp.cancer.gov/dtpstandard/dwindex/index.jsp
[9] = ref https://dtp.cancer.gov/dtpstandard/dwindex/index.jsp

## Cc1ccc(-c2cc(C(F)(F)F)nn2-c2ccc(S(N)(=O)=O)cc2)cc1 [Celecoxib, celecoxib]
NCI-H23
  GI50: 15.8 µM
CAKI-1
  GI50: 19.9 µM
A498
  GI50: 15.8 µM
[1]
  TGI MG-MID: 34.0 µM
[1]; read-out: GI50 MG-MID
  GI50: 17.5 µM
[1]; read-out: LC50 MG-MID
  CC50: 63.3 µM
MDA-MB-435
  GI50: 15.8 µM
[2]; [7]
  GI50: 20.7 µM
[2]; [8]
  CC50: 66.5 µM
[2]; [9]
  TGI, subpanel average: 41.39 µM
OVCAR-5
  GI50: 19.9 µM
MCF-7
  GI50: 15.8 µM
786-0
  GI50: 39.8 µM
[3]; [7]
  GI50: 17.5 µM
[3]; [9]
  TGI, subpanel average: 34.89 µM
NCI/ADR-RES
  GI50: 15.8 µM
TK-10
  GI50: 19.9 µM
[4]; [7]
  GI50: 17.2 µM
[4]; [8]
  CC50: 58.8 µM
[4]; [9]
  TGI, subpanel average: 31.62 µM
SF-268
  GI50: 15.8 µM
UACC-257
  GI50: 19.9 µM
ACHN
  GI50: 15.8 µM
HCC-2998
  GI50: 15.8 µM
IGROV1
  GI50: 15.8 µM
SK-MEL-28
  GI50: 15.8 µM
DU-145
  GI50: 15.8 µM
U251
  GI50: 15.8 µM
NCI-H460
  GI50: 15.8 µM
MALME-3M
  GI50: 19.9 µM
SNB-75
  GI50: 15.8 µM
[5]; [7]
  GI50: 17.1 µM
[5]; [8]
  CC50: 65.9 µM
[5]; [9]
  TGI, subpanel average: 34.20 µM
A549/ATCC
  GI50: 15.8 µM
CCRF-CEM
  GI50: 12.6 µM
MDA-MB-231/ATCC
  GI50: 15.8 µM
HT29
  GI50: 15.8 µM
OVCAR-8
  GI50: 19.9 µM
SN12C
  GI50: 15.8 µM
KM12
  GI50: 15.8 µM
UO-31
  GI50: 15.8 µM
EKVX
  GI50: 19.9 µM
[6]; [7]
  GI50: 12.3 µM
[6]; [8]
  CC50: 67.1 µM
[6]; [9]
  TGI, subpanel average: 29.27 µM
LOX IMVI
  GI50: 19.9 µM
